{"source": "patent US6841577B2", "about": "“Pesticidal activity of plant essential oils and their constituents” (Ecosmart Technologies, Inc., priority 1999, dated 2005)", "key": {"[1]": {"system": "heart of American cockroach (octopamine receptors)", "assay": "Heartbeat after application to thoracic segment", "assay_type": "in vivo", "details": "mean ±SD of three roaches; for Heart beat/30 sec 30 min after treatment: 300 μg applied to thoracic segment; for Heart beat/30 sec before treatment: baseline of the same roaches", "description": "To further establish the effect of the purified naturally occurring plant essential oils and/or their constituents on the American cockroach, a 300 μg amount of the chemical was applied to the thoracic segment of an intact and alive American cockroach. The heart beats/30 seconds was measured. The heart of the cockroach is known to have a high concentration of octopamine receptors and the heart beat is considered an important measurement to indicate the effect of the applied chemicals to the octopamine receptors."}, "[2]": {"system": "2nd instar green peach aphid nymphs", "assay": "Cabbage leaf disc bioassay", "assay_type": "in vivo", "description": "A bioassay similar to that for S. litura larvae was used for additional larvae. Cabbage leaf discs were dipped in emulsified aqueous solutions, diluted 1:200 in water, on which 2nd instar green peach aphid nymphs were placed. For each treatment there was 10 aphids per disc with 5 replicates; each experiment was replicated in time (successive days) from 3-5 times. After 24 hours, aphids were reported as being (1) on the leaf disc and feeding; (2) alive, but walking off the disc; or (3) dead. In the field, aphids which cease feeding and abandon a host plant are very unlikely to survive."}, "American cockroach [3]": {"system": "American cockroach", "assay": "Cross walk jar test on pre-treated surface", "assay_type": "in vivo", "description": "In the test, a known amount of the test material was dissolved in a known volume of acetone and applied to small jars and all inner bottom surfaces were covered. The bottom surface of each jar is approximately 250 cm^2. One hour after the acetone had completely evaporated, five American cockroaches were introduced to each jar. Control jars were treated exactly as above but with the known amount of acetone only.\nThe results of the “cross walk” jar tests are in Table 8 in which the “4-blend” was dispersed as an aerosol and a dust in the jar.\nIn this test, the acetone solution of the test material was placed in the jar and the roach inserted into the jar after the acetone had evaporated.\nMortality was measured 24 hours after exposure.\nThe “4-blend” and the individual constituents of the “4-blend” were tested using 10 cockroaches for each “cross walk” treatment. In addition, pyrethrins were tested separately and mixed with the various components.\nA concentration of 100 mg/jar was used for each individual alone. In the co-treatment experiment without pyrethrins, 20 mg/jar for each chemical was used. In the cotreatment experiment with pyrethrins, 20 mg/jar for the naturally occurring plant material was used. Pyrethrins was used at 2 mg/jar. […] It was noted above that the mortality is dependent upon concentration. […] Some synergism is found between pyrethrins and either α-terpineol or benzyl alcohol."}, "[4]": {"system": "octopamine receptor sites", "assay": "3H-OA binding to ventral nerve cord / synaptosomal membrane protein", "parameters": "species or system American cockroach (Periplaneta americana)", "details": "for dpm 3H-OA/500 μg protein: Table 2; for cpm 3H-OA/500 μg protein: Table 3; for classification with respect to octopamine receptor sites (OAR): based on the binding data of Tables 1-3", "description": "Different concentrations of unlabeled octopamine (OA) (20, 30, 40, 50, 60, 100 ng) were tested on the binding activity as a positive control. Test chemicals were dissolved in acetone before the assay. Different concentrations of the test chemicals were added directly to the protein preparation from ventral nerve cord. The same amount of solvent (1 μl 0.1%) were added to the control samples. All assays with test chemicals were run in the presence and absence of 50 ng OA. All chemicals were added to the protein extract 20 min prior the addition of radio labeled ^3H-OA(100,000 cpm/sample). After 30 min at 24° C. of the addition of ^3H-OA, the reaction was stopped by the addition of ice-cold Tris buffer, and the samples were filtered through GF/C membrane using water vacuum. After two washes each with 5 ml Tris buffer, the membrane was removed, air dried and the radioactivity was counted in 4 ml liquid scintillation solution. The specific binding was calculated as the difference between the values in the presence and absence of unlabeled OA. All data are calculated as the mean±standard deviation of 5 assays.\nAdditional tests were conducted on radio labeled octopamine using other purified naturally occurring materials as given in Tables 2 and 3."}, "American cockroach [5]": {"system": "American cockroach", "assay": "Lethal effect of injected test chemicals", "assay_type": "in vivo", "details": "dead/10", "description": "Further studies were conducted to determine the LD 50 of purified naturally occurring plant essential oils and/or their constituents. […] Ten roaches per dose were used. Another group of ten roaches received the same volume of vehicle only (0.5 μl) and used as a control group. Mortality was recorded 24, 48, and 72 hours after exposure."}, "[6]": {"details": "500 ng/ml, solvent control 1101 ± 120"}, "[7]": {"details": "1000 ng/ml, solvent control 930 ± 89"}, "[8]": {"details": "500 ng/ml, solvent control 1385 ± 101"}, "[9]": {"details": "1000 ng/ml, solvent control 1915 ± 110"}}, "data": [{"smiles": "CC(=O)OCc1ccccc1", "note": "[Benzyl Acetate]", "values": [{"measurement": "Heart beat/30 sec 30 min after treatment", "setting": "[1]", "result": "42 ± 1", "unit": "beat/30 sec"}, {"measurement": "Heart beat/30 sec before treatment", "setting": "[1]", "result": "45 ± 2", "unit": "beat/30 sec"}]}, {"smiles": "OCc1ccccc1", "note": "[Benzyl Alcohol]", "values": [{"measurement": "activity on green peach aphid nymphs, in words", "setting": "[2]; 1:200 dilution", "result": "relatively inactive"}, {"measurement": "Percentage of aphids Walking (off disc)", "setting": "[2]; diluted 1:200 in water, after 24 hours, n = 250, Table 16, control 23.4", "result": 22.3, "unit": "%"}, {"measurement": "Percentage of aphids Dead", "setting": "[2]; diluted 1:200 in water, after 24 hours, n = 250, Table 16, control 24.8", "result": 32.8, "unit": "%"}, {"measurement": "Percentage of aphids Feeding", "setting": "[2]; diluted 1:200 in water, after 24 hours, n = 250, Table 16, control 51.7", "result": 44.5, "unit": "%"}, {"measurement": "mortality at 100 mg", "setting": "American cockroach [3]; Periplaneta americana, 24 h", "result": 0, "unit": "%"}, {"measurement": "mortality at 100 mg", "setting": "American cockroach [3]; Periplaneta americana, 48 h", "result": 20, "unit": "%"}, {"measurement": "mortality at 100 mg", "setting": "American cockroach [3]; Periplaneta americana, 72 h", "result": 40, "unit": "%"}, {"measurement": "mortality at 10 mg", "setting": "American cockroach [3]; Periplaneta americana, inhaled or nasal", "result": 100, "unit": "%"}, {"measurement": "Heart beat/30 sec 30 min after treatment", "setting": "[1]", "result": "39 ± 2", "unit": "beat/30 sec"}, {"measurement": "Heart beat/30 sec before treatment", "setting": "[1]", "result": "45 ± 3", "unit": "beat/30 sec"}]}, {"smiles": "OC/C=C/c1ccccc1", "note": "[Cinnamic Alcohol]", "values": [{"measurement": "Heart beat/30 sec 30 min after treatment", "setting": "[1]", "result": "54 ± 3", "unit": "beat/30 sec"}, {"measurement": "Heart beat/30 sec before treatment", "setting": "[1]", "result": "52 ± 2", "unit": "beat/30 sec"}]}, {"smiles": "CC(C)=CCCC(C)CCO", "note": "(stereo not shown) [Citronellol]", "values": [{"measurement": "dpm 3H-OA/500 μg protein", "setting": "[4]; [6]", "result": "999 ± 65", "unit": "dpm 3H-OA/500 μg protein"}, {"measurement": "dpm 3H-OA/500 μg protein", "setting": "[4]; [7]", "result": "557 ± 43", "unit": "dpm 3H-OA/500 μg protein"}]}, {"smiles": "CCOc1cc(C=O)ccc1O", "note": "[Ethyl vanillin]", "values": [{"measurement": "cpm 3H-OA/500 μg protein", "setting": "[4]; [8]", "result": "1723 ± 119", "unit": "cpm 3H-OA/500 μg protein"}, {"measurement": "classification with respect to octopamine receptor sites (OAR)", "setting": "[4]", "result": "Non-OAR Specific Toxicants"}]}, {"smiles": "CC12CCC(CC1)C(C)(C)O2", "note": "[Eucaluptol, Eucalyptol]", "values": [{"measurement": "Mortality", "setting": "American cockroach [5]; 500 μg/roach injected into thoracic and abdominal segments, 24 hr.", "result": "0/10"}, {"measurement": "Mortality", "setting": "American cockroach [5]; 500 μg/roach injected, 48 hr.", "result": "0/10"}, {"measurement": "Mortality", "setting": "American cockroach [5]; 500 μg/roach injected, 72 hr., control 1/10", "result": "0/10"}, {"measurement": "agonist/antagonist note to 3H-OA binding", "setting": "[4]; 500 ng/ml", "result": "antagonist"}, {"measurement": "dpm 3H-OA/500 μg protein", "setting": "[4]; [6]", "result": "865 ± 45", "unit": "dpm 3H-OA/500 μg protein"}, {"measurement": "cpm 3H-OA/500 μg protein", "setting": "[4]; [8]", "result": "1637 ± 095", "unit": "cpm 3H-OA/500 μg protein"}, {"measurement": "dpm 3H-OA/500 μg protein", "setting": "[4]; [7]", "result": "653 ± 36", "unit": "dpm 3H-OA/500 μg protein"}, {"measurement": "classification with respect to octopamine receptor sites (OAR)", "setting": "[4]", "result": "Non-OAR Specific Toxicants"}]}, {"smiles": "COc1ccccc1O", "note": "[Guaiacol]", "values": [{"measurement": "cpm 3H-OA/500 μg protein", "setting": "[4]; [8]", "result": "1787 ± 151", "unit": "cpm 3H-OA/500 μg protein"}, {"measurement": "classification with respect to octopamine receptor sites (OAR)", "setting": "[4]", "result": "Non-OAR Specific Toxicants"}]}, {"smiles": "COC(=O)c1ccccc1O", "note": "[Methyl salicylate]", "values": [{"measurement": "mortality at 10 mg", "setting": "American cockroach [3]; Periplaneta americana, 24 h", "result": 0, "unit": "%"}, {"measurement": "mortality at 20 mg", "setting": "American cockroach [3]; Periplaneta americana, 24 h", "result": 20, "unit": "%"}, {"measurement": "mortality at 30 mg", "setting": "American cockroach [3]; Periplaneta americana, 24 h", "result": 40, "unit": "%"}, {"measurement": "mortality at 40 mg", "setting": "American cockroach [3]; Periplaneta americana, 24 h", "result": 80, "unit": "%"}, {"measurement": "mortality at 50 mg", "setting": "American cockroach [3]; Periplaneta americana, 24 h", "result": 100, "unit": "%"}, {"measurement": "pesticidal activity against cockroaches, in words", "setting": "American cockroach [3]; in vivo", "result": "high pesticidal activity"}, {"measurement": "activity/binding at octopamine receptor sites, in words", "setting": "[4]", "result": "antagonists which are most strongly bound"}, {"measurement": "agonist/antagonist note to 3H-OA binding", "setting": "[4]; 500 ng/ml", "result": "antagonist"}, {"measurement": "cpm 3H-OA/500 μg protein", "setting": "[4]; [8]", "result": "0084 ± 009", "unit": "cpm 3H-OA/500 μg protein"}, {"measurement": "classification with respect to octopamine receptor sites (OAR)", "setting": "[4]", "result": "extremely high OAR antagonists"}]}, {"smiles": "O=Cc1ccc2c(c1)OCO2", "note": "[Piperonal]", "values": [{"measurement": "cpm 3H-OA/500 μg protein", "setting": "[4]; [8]", "result": "1680 ± 131", "unit": "cpm 3H-OA/500 μg protein"}, {"measurement": "classification with respect to octopamine receptor sites (OAR)", "setting": "[4]", "result": "Non-OAR Specific Toxicants"}]}, {"smiles": "CC(=O)OCc1ccc2c(c1)OCO2", "note": "[Piperonyl acetate]", "values": [{"measurement": "agonist/antagonist note to 3H-OA binding", "setting": "[4]; 500 ng/ml", "result": "antagonist"}, {"measurement": "cpm 3H-OA/500 μg protein", "setting": "[4]; [8]", "result": "1090 ± 092", "unit": "cpm 3H-OA/500 μg protein"}, {"measurement": "cpm 3H-OA/500 μg protein", "setting": "[4]; [9]", "result": "519 ± 52", "unit": "cpm 3H-OA/500 μg protein"}]}, {"smiles": "OCc1ccc2c(c1)OCO2", "note": "[Piperonyl alcohol]", "values": [{"measurement": "agonist/antagonist note to 3H-OA binding", "setting": "[4]; 500 ng/ml", "result": "antagonist"}, {"measurement": "cpm 3H-OA/500 μg protein", "setting": "[4]; [8]", "result": "1124 ± 083", "unit": "cpm 3H-OA/500 μg protein"}, {"measurement": "cpm 3H-OA/500 μg protein", "setting": "[4]; [9]", "result": "862 ± 61", "unit": "cpm 3H-OA/500 μg protein"}]}]}
